Assay results reported in US20220304992A1, “METHODS OF REJUVENATING AGED TISSUE BY INHIBITING 15-HYDROXYPROSTAGLANDIN DEHYDROGENASE (15-PGDH)” (The Board of Trustees of the Leland Stanford Junior …, priority 2019, published 2022).
“Also recorded” adds a separate entry of the source.

How the values were obtained:
[1] = tested on: 15-PGDH (Hpgd); test: Senolytic ABT-263 treatment of aged mice: 15-PGDH in muscle; format: in vivo, mouse; conditions: 20 month mice, analyzed 2 months later
Method: For ABT-263 treatments, 20 month old C57/B16 mice were treated with vehicle (ethanol:polyethylene glycol 400:Phosal 50 PG) or ABT-263 (in ethanol:polyethylene glycol 400:Phosal 50 PG) by oral gavage for 2 cycles of 1 week with a 2 week rest period between cycles as described previously (1). For the Duchenne muscular dystrophy (DMD) mouse model, we used 8-10 month old mdx4cv/mTRKO(G2) generated as previously described (2).
(§1) For ABT-263 treatments, 20 month old C57/B16 mice were treated with vehicle (ethanol:polyethylene glycol 400:Phosal 50 PG) or 50 mg/kg/day ABT-263 (in ethanol:polyethylene glycol 400:Phosal 50 PG) by oral gavage for 2 cycles of 1 week with a 2 week rest period between cycles as described previously (5). Intramuscular injection of PGE2 was carried out in young mice with either 13 nmol PGE2 (Cayman Chemicals) or vehicle control (PBS) into the TA muscle. Mouse transgenic strains were purchased from The Jackson Laboratory (EP4^flox/flox; EP4O) No. 028102 (6). We validated these genotypes by appropriate PCR-based strategies. Studies were performed with male mice.
We collected and prepared recipient Tibialis anterior (TA) or gastrocnemius (GA) muscle tissues for histology as previously described (6). […]

[2] = tested on: INK-ATTAC mice; test: AP20187 clearance of senescent cells in INK-ATTAC mice; format: in vivo, mouse; conditions: 16-month treatment
From the text: We performed all experiments and protocols in compliance with the institutional guidelines of Stanford University and Administrative Panel on Laboratory Animal Care (APLAC). Middle aged (18-20 mo.) and aged (>24 mo.) mice C57BL/6 were obtained the US National Institute on Aging (NIA) for aged muscle studies, and young (2-4 mo.) wild-type C57BL/6 mice from Jackson Laboratory. INK-ATTAC mice were generated as previously described (1). INK-ATTAC healthspan assessments. INK-ATTAC mice were crossed onto the C57BL6/J genetic background and maintained in specific-pathogen free housing on a 12-hour dark/light cycle for study duration. At 12 months of age, male mice were either utilized for baseline healthspan assessments and terminal muscle harvest or randomized to receive twice-weekly vehicle or AP20187 (2 mg/kg intraperitoneal injection; B/B homodimerizer, Clontech) until assessment and sacrifice at 28 months of age (2). […] Time and distance to exhaustion was performed as previously described (4) for SW-treated mice and their controls.
We isolated and enriched myogenic cells as previously described (6-9). Briefly, hindlimb muscles were minced and digested using a collagenase and dispase solution by the MACs Dissociator (Miltenyi). Using FACs, for myogenic stem and progenitor cells we isolated cells negative for the hematopoietic lineage and non-muscle cells (CD45-/CD11b-/CD31-/Scal-) and sorted for a7-integrin*cells markers. For macrophages isolation we sorted a7-/Cd11b+/Cd11c-/F4/80^+ populations. For endothelial cells we sorted a7-/Cd11b-/Cd11c/CD31+. We generated and analyzed flow cytometry scatter plots using FlowJo v10.0.

[3] = tested on: myotubes; test: Differentiated (starved) cultured myotubes: Atrogin1 expression and diameter; format: cell-based, mouse
Method: For myotubes we performed fixation using 4% PFA, blocking and permeabilization using PBS/1% BSA/0.1% Triton X-100 and staining with primary antibodies anti-MyHC (Thermo Fisher Scientific, catalog #14-6503-82, clone MF-20, 1:500) and then with AlexaFluor secondary Antibodies (Jackson ImmunoResearch Laboratories, 1:500). We counterstained nuclei with DAPI (Invitrogen).
Primary myoblasts were grown in myogenic cell culture medium containing DMEM/F10 (50:50), 15% FBS, 2.5 ng ml-1 fibroblast growth factor-2 and 1% penicillin-streptomycin. For differentiation experiments, confluent myoblasts were grown in medium containing 5% horse serum, DMEM. […] Myoblasts were isolated from EP4^fl/fl mice and received either a mCherry/Cre lentivirus or a mock infection as previously described (5).
For cultured myotubes we performed fixation using 4% PFA, blocking and permeabilization using PBS/1% BSA/0.1% Triton X-100 and staining with primary antibodies anti-MYH (Thermo Fisher Scientific, catalog #14-6503-82, clone MF-20, 1:500) and then with AlexaFluor secondary Antibodies (Jackson ImmunoResearch Laboratories, 1:500). We counterstained nuclei with DAPI (Invitrogen). We acquired images using the KEYENCE BZ-X700 all-in-one fluorescence microscope (Keyence) with 20x/0.75 N.A. objectives. We analyzed the fiber area using the Keyence Advanced Analysis Software. For fiber area the entire maximum cross-sectional area of the muscle was quantified or at least 10 fields of LAMININ or WGA stained myofiber cross-sections encompassing over 400 myofibers were captured for each mouse as above. For fiber typing analysis, the MATLAB application SMASH-Semi-Automatic Muscle Analysis Using Segmentation of Histology, was used as previously described (12). Data analyses were blinded. The researchers performing the imaging acquisition and scoring were unaware of treatment condition given to sample groups analyzed.
Primary murine myoblasts were grown in myogenic cell culture medium containing DMEM/F10 (50:50), 15% FBS, 2.5 ng ml^−1 fibroblast growth factor-2 and 1% penicillin-streptomycin. […] For differentiation experiments, confluent myoblasts were grown in medium containing 5% horse serum, DMEM.

[4] = tested on: cyclic AMP response element binding protein (CREB); test: Immunoblots of muscle lysates after intramuscular PGE2; format: in vivo, mouse; conditions: young mice, 13 nmol i.m., 0, 30 or 60 minutes
Method: as §1
Total lysates were prepared using lysis buffer (50 mM Tris-HCl pH 7.5, 150 mM NaCl, 4 mM CaCl, 1.5% Triton X-100, protease inhibitors and micrococcal nuclease). For tissue extracts, lysates were homogenized a FastPrep 24 homogenizer (MP Biomedicals) for 40 seconds at a speed of 6 m/s. We used the following antibodies: 15-PGDH (Santa Cruz Biotechnology, cat # sc-271418); phospho-AKT (Ser 473) (Cell Signaling cat #4060), AKT (Cell signaling cat #2920); phospho-FoxO1 (Thr24)/FoxO3a (Thr32) Antibody (Cell Signaling cat #9464T); Foxo3a (Cell Signaling cat #2497); phospho-CREB (Ser133) (Cell Signaling cat #9198S); phospho-S6 ribosomal protein (Ser235/236) (Cell Signaling cat#4858); SMC1 (Bethyl Laboratories cat# A300-055A-T). […]

[5] = tested on: murine myotubes; test: Protein synthesis by in vitro SUnSET (puromycin incorporation); format: cell-based, mouse; conditions: PGE2 10 ng/ml daily, 4 d
Method: The SUnSET assay was used to monitor the rate of protein synthesis as previously described (4). Briefly, 10 min prior harvesting the cells, puromycin was added to culture medium at […]. As a control, cycloheximide to block protein translation was added. Cell extracts were then processed for western blotting using anti-puromycin 12D10 antibody (Millipore).

[6] = tested on: AKT/FOXO pathway; test: Immunoblots of human myotubes treated with PGE2; format: cell-based; conditions: PGE2 10 ng/ml, 15 or 30 minutes
Method: Primary murine myoblasts were grown in myogenic cell culture medium containing DMEM/F10 (50:50), 15% FBS, 2.5 ng ml^-1 fibroblast growth factor-2 and 1% penicillin-streptomycin. […] For differentiation experiments, confluent myoblasts were grown in medium containing 5% horse serum, DMEM. […] Total lysates were prepared using lysis buffer (50 mM Tris-HCl pH 7.5, 150 mM NaCl, 4 mM CaCl, 1.5% Triton X-100, protease inhibitors and micrococcal nuclease). […] We used the following antibodies: 15-PGDH (Santa Cruz Biotechnology, cat # sc-271418); phospho-AKT ([…]) (Cell Signaling cat #4060), AKT (Cell signaling cat #2920); phospho-FoxO1 ([…])/FoxO3a ([…]) Antibody (Cell Signaling cat #9464T); Foxo3a (Cell Signaling cat #2497); phospho-CREB (Ser133) (Cell Signaling cat #9198S); phospho-S6 ribosomal protein (Ser235/236) (Cell Signaling cat#4858); SMC1 (Bethyl Laboratories cat# […]). We used HRP conjugated secondary antibodies and developed by incubating the membranes with ECL Western Blotting Substrate (Nacalai USA) and imaging using the ChemiDoc Imaging System (BioRad).

CC1(C)CCC(c2ccc(Cl)cc2)=C(CN2CCN(c3ccc(C(=O)NS(=O)(=O)c4ccc(N[C@H](CCN5CCOCC5)CSc5ccccc5)c(S(=O)(=O)C(F)(F)F)c4)cc3)CC2)C1 [ABT-263, navitoclax]
15-PGDH (Hpgd) mRNA / gene expression levels in muscle ([1]; 50 mg/kg/day oral gavage, 2 cycles, 50 mg/kg/day): reduced; also recorded: markedly decreased | percentage of cells expressing 15-PGDH by immunohistochemistry [1]: markedly decreased

CC[C@H](C(=O)N1CCCC[C@H]1C(=O)O[C@H](CCc1ccc(OC)c(OC)c1)c1cccc(OCC(=O)NCC(CNC(=O)COc2cccc([C@@H](CCc3ccc(OC)c(OC)c3)OC(=O)[C@@H]3CCCCN3C(=O)[C@@H](CC)c3cc(OC)c(OC)c(OC)c3)c2)CN(C)C)c1)c1cc(OC)c(OC)c(OC)c1 [AP]
15-PGDH levels in FACS isolated macrophages [2]: reduced levels | PGE2 levels in muscle by LC-MS/MS [2]: increase | 15-PGDH transcript levels in muscle ([2]; 2 mg/kg i.p. twice weekly): markedly reduced | endurance (distance run on a treadmill until exhaustion and body weight) ([2]; 28 months): increase | grip strength ([2]; 28 months): increase | hindlimb muscle mass (TA and GA) ([2]; 28 months): increase

CC(C(=O)Nc1cc(C#N)ccc1CCCC(=O)O)c1ccc(F)c2ccccc12 (stereo not shown) [ONO-AE3-208]
PGE2-induced increase of myotube diameter in the presence of the antagonist ([3]; ONO-AE3-208 1 μM with PGE2 10 ng/ml): abrogated; also recorded: not seen

CCCCC[C@H](O)/C=C/[C@H]1[C@H](O)CC(=O)[C@@H]1C/C=C\CCCC(=O)O [PGE2, Prostaglandin E2]
CREB activation in skeletal muscles [4]: activates; also recorded: activation | protein synthesis quantified by puromycin incorporation [5]: increased | myotube diameter ([3]; starved (24 hr) or non-starved myotubes, PGE2 10 ng/ml, SW 1 μM): increased; also recorded: marked increase | Atrogin1 expression ([3]; starved myotubes, PGE2 10 ng/ml): greatly decreased | FOXO (pFOXO3a) [6]: inactivated | pAKT levels [6]: increased levels | phospho-S6 ribosomal protein (pS6rp) [6]: activated
